From US12624019B2, “Indazole derivative, and preparation method therefor and use thereof” (Leadingtac Pharmaceutical (Shaoxing) Co., Ltd., priority 2020, dated 2026)

Columns and labels:
IRAK4 kinase = target: T1, IRAK4 kinase (Homo sapiens, UniProt Q9NWZ3); test: IRAK4 kinase activity test (KinEASE-STK HTRF kit); assay type: biochemical; conditions: IRAK4 kinase inhibition, 7 μM ATP, 37° C. 120 min
T1 sequence (Q9NWZ3 1-460): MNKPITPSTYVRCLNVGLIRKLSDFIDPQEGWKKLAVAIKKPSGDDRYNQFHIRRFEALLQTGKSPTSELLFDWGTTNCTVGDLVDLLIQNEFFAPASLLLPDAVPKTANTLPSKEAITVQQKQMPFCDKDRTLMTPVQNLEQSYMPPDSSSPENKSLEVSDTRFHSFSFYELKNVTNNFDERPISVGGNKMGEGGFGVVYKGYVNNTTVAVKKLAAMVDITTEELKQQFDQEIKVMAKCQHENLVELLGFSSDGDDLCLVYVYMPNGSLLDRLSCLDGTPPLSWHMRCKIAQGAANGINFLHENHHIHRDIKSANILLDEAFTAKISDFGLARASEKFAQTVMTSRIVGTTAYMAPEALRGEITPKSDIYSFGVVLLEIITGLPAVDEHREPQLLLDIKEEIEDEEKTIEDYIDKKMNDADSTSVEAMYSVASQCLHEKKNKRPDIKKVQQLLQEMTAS
Procedure: KinEASE-STK Si serine/threonine kinase kit (Cisbio) was used to detect the inhibitory effect of the compound on IRAK4 kinase activity. The specific method was: the compound was dissolved in dimethyl sulfoxide, and then it was diluted with the buffer solution of the kit by equal gradient to make the final concentration range of the tested compound in the reaction system 10000 nM-0.038 nM, then 2.5 nM kinase, 1 μM biotinylated polypeptide substrate and 7 μM adenosine triphosphate (ATP) were added in sequence and incubated at 37° C. for 120 min. Subsequently, anti-phosphorylated serine/threonine antibody coupled with europium element compound and modified XL665 streptavidin were added to the reaction system to terminate the reaction. After incubating at room temperature for 1 h, the fluorescence intensity of each well at the emission wavelength of 620 nm and 665 nm and the excitation wavelength of 337 nm was determined in HTRF mode on the microplate reader EnVision (PerkinElmer), the ratio value was calculated using the formula Ratio=(665 nm/620 nm)×10^4. By comparing with the fluorescence intensity ratio of the control group, the inhibition rate of the compound at each concentration was calculated, and then the IC50 value of the compound was obtained by fitting the nonlinear curve with the logarithmic concentration-inhibition rate by GraphPad Prism 7.

IKZF1 = target: T2, IKZF1 (Homo sapiens, UniProt Q13422+Q96SW2); test: Degradation of IKZF1 in L363 cells by Western blot; assay type: cell-based; conditions: compound 1000 nM, 16 hours
T2 construct: endogenous in cells; host or cells: L363 cells
T2 sequence (Q13422 whole entry): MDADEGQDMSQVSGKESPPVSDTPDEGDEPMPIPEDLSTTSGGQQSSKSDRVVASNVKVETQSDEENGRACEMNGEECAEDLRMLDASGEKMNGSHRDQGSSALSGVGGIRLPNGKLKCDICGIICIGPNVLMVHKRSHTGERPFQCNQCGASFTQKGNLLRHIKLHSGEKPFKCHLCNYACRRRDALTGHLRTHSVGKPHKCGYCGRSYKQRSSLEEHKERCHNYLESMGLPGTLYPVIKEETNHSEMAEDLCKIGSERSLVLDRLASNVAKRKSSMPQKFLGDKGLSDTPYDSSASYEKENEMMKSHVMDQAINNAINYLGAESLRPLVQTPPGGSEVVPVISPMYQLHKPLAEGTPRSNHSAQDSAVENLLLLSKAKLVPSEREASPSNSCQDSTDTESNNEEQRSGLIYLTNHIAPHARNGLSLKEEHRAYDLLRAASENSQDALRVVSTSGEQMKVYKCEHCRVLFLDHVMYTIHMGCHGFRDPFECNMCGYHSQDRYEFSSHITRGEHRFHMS
T2 sequence (Q96SW2 whole entry): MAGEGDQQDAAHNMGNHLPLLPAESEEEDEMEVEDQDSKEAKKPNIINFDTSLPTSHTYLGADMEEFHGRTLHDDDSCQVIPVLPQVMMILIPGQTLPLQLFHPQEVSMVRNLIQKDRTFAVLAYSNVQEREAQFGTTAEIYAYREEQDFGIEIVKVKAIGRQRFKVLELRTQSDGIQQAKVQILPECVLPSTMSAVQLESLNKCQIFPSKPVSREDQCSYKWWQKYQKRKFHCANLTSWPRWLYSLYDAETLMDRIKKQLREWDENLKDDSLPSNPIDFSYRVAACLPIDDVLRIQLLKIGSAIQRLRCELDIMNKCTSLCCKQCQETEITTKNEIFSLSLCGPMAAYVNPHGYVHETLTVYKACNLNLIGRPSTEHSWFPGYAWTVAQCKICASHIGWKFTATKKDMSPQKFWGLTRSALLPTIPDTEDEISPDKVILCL
T2 sequence (Q16531 whole entry partner): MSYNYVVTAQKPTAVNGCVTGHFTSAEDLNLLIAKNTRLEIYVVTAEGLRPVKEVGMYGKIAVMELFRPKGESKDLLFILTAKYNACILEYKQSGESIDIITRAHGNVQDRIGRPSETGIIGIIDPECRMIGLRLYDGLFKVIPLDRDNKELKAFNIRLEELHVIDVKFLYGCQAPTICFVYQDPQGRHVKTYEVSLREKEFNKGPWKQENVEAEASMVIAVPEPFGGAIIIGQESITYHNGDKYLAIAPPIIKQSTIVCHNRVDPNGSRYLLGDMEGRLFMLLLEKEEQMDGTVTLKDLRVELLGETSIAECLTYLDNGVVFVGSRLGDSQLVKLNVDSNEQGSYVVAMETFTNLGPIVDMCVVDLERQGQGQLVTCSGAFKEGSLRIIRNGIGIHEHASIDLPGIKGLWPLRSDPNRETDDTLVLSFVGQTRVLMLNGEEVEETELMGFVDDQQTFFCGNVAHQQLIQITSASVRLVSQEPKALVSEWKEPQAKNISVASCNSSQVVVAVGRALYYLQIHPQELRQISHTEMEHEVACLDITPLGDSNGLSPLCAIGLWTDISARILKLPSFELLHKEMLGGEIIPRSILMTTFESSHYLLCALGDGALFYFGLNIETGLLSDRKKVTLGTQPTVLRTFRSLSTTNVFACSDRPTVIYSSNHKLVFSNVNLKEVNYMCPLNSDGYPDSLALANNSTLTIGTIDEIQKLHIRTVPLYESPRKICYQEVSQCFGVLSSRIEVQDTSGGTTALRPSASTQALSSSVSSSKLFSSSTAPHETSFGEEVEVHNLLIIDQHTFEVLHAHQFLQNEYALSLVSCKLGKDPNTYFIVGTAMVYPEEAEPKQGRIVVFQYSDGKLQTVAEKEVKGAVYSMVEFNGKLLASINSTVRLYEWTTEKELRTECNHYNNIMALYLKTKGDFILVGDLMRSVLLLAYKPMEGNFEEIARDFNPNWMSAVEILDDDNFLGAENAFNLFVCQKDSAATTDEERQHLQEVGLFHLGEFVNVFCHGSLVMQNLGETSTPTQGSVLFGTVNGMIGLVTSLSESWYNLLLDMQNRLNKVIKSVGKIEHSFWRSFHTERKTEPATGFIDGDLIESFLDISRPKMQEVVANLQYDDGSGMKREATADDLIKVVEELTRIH
Procedure: (§1) The 24-well cell culture plate was inoculated with 0.95 mL L363 cells (Nanjing Co-bioer) per well with a cell density of 6×10^5 cells/well. The cell plate was placed in a 5% carbon dioxide incubator and cultured at 37° C. for 8 hours, then 50 μL of compound solution was added. The final concentration of the compound was 1000 nM. After continuing to culture for 16 hours, the cells were collected into a 1.5 mL centrifuge tube and centrifuged at 3000 rpm and 4° C. for 5 minutes. Cell precipitation was washed twice with 1×DPBS, resuspended cells were lysed with 100 μL lysate (cell lysate was Western and IP cell lysate (Beyotime), supplemented with 1 mM mixture of phenylmethylsulfonyl fluoride and protease inhibitor (Beyotime)), left on ice for 30 minutes, then centrifuged at 14000 g at 4° C. for 10 minutes, and the supernatant was taken to detect IKZF1 and IKZF3 protein level by Western blot.
(§2) The total protein concentration in the supernatant of cell lysis was determined by BCA protein quantitative kit (Tiangen). According to the concentration of total protein detected by BCA, the supernatant was adjusted to […] with PBS and 5×SDS-PAGE protein loading buffer (Beyotime), bathed in water at 100° C. for 10 minutes, then placed in ice bath for 5 minutes, centrifuged at 14000 g and 4° C. for 5 minutes, and then collected as WB loading sample. Prefabricated glue (KeyGEN) was used for protein electrophoresis with a loading amount of 10 μL (total protein 2 μg). After Tris-MOPS-SDS electrophoresis solution (Adamas), 120V constant pressure electrophoresis was performed. After electrophoresis, the protein on the adhesive strip was transferred to PVDF membrane with a constant current of […] for 50 minutes. After the membrane was transferred, the membrane was incubated in 5% bovine serum albumin solution for 2 hours at room temperature. After blocking, PVDF membranes were incubated with IKZF1 primary antibody (CST) and IKZF3 primary antibody (Abcam) overnight at 4°, the membranes were washed with TBST buffer (2.4 g Tris, 8.8 g NaCl, 1.5 mL Tween 20, pH adjusted to 7.4, constant volume to 1 L) for 30 minutes, incubated with secondary antibody (Abcam) for 2 hours at room temperature, finally incubated with Clarity Western ECL Substrate (BIO-RAD) for 5 minutes for luminescence development, chemiluminescence imaging system (Clinx, chemiScope 6200 Touch) was used for development and protein mapping photography. The protein map was analyzed by Clinx chemiluminescence analysis software for grayscale values. Using the formula: grayscale correction value=(target protein grayscale value/corresponding internal reference grayscale value)×10^3, the grayscale correction value of each sample was calculated. The degradation rate was calculated by comparing with the grayscale correction value of the control group.

IKZF3 = target: T3, IKZF3 (Homo sapiens, UniProt Q96SW2+Q9UKT9); test: Degradation of IKZF3 in L363 cells by Western blot; assay type: cell-based; conditions: compound 1000 nM, 16 hours
T3 construct: endogenous in cells; host or cells: L363 cells
T3 sequence (Q9UKT9 whole entry): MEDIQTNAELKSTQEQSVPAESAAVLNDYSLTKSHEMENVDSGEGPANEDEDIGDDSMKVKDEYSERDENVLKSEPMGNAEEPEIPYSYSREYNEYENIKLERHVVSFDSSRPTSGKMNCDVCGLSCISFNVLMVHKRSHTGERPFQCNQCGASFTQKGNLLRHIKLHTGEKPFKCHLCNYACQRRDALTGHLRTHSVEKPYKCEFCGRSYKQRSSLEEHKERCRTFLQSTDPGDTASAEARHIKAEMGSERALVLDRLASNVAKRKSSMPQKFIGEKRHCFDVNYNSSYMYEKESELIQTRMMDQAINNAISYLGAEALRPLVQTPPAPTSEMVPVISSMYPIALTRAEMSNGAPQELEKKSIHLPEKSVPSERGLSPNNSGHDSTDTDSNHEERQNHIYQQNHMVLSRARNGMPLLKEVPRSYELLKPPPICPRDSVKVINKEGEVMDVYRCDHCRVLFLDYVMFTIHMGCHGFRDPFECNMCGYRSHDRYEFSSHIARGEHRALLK
T3 sequence (Q96SW2 whole entry): as the sequence (Q96SW2 whole entry) above
T3 sequence (Q16531 whole entry partner): as the sequence (Q16531 whole entry partner) above
Procedure: as §1, §2

[1] = target: T4, IRAK4 kinase protein in THP-1 cells (Homo sapiens, UniProt Q9NWZ3); test: Degradation of IRAK4 in THP-1 cells by Western Blot; assay type: cell-based; conditions: 24 hours; for DC50 / Dmax: IRAK4 degradation in THP-1 cells; for DC50: read-out: WB DC50; for Dmax: read-out: WB Dmax; for WB D(%) (300 nM) / WB D(%) (1000 nM): degradation percentage of IRAK4 in THP-1 cells; for WB D(%) (300 nM): compound 300 nM; for WB D(%) (1000 nM): compound 1000 nM
T4 construct: endogenous in cells; host or cells: THP-1 cells
T4 sequence (Q9NWZ3 1-460): T1 sequence (Q9NWZ3 1-460)
Procedure: Each well of the 24-well cell culture plate was inoculated with 0.95 mL THP-1 cells (stem cell bank of Chinese academy of sciences) with a cell density of 5×10^5 cells/well. The cell plate was placed in a 5% carbon dioxide incubator and cultured overnight at 37° C., then 50 μL compound in dimethyl sulfoxide was added. The final concentration of the compound was in the range of 1-3000 nM. After continuous cultivation for 24 hours, the cells were collected into a 1.5 mL centrifuge tube, centrifuged at 1000 rpm and 4° C. for 5 minutes. Cell precipitation was washed twice with 1×DPBS, resuspended cells were lysed with 200 μL lysate (cell lysate was Western and IP cell lysate (Beyotime), supplemented with 1 mM mixture of phenylmethylsulfonyl fluoride and protease inhibitor (Beyotime)), left on ice for 30 minutes, then centrifuged at 14000 g at 4° C. for 10 minutes, and the supernatant was taken to detect IRAK4 protein level by Western blot.
The total protein concentration in the supernatant of cell lysis was determined by BCA protein quantitative kit (Tiangen). According to the concentration of total protein detected by BCA, the supernatant was adjusted to […] with PBS and 5×SDS-PAGE protein loading buffer (Beyotime), bathed in water at 100° C. for 10 minutes, then placed in ice bath for 5 minutes, centrifuged at 14000 g and 4° C. for 5 minutes, and then collected as WB loading sample. Prefabricated glue (KeyGEN) was used for protein electrophoresis with a loading amount of 10 μL (total protein 2 μg). After Tris-MOPS-SDS electrophoresis solution (Adamas), 120V constant pressure electrophoresis was performed. After electrophoresis, the protein on the adhesive strip was transferred to PVDF membrane with a constant current of […] for 50 minutes. After the membrane was transferred, the membrane was added in 1×QuickBlock blocking buffer (Beyotime) and incubated for 30 minutes at room temperature. After blocking, PVDF membranes were incubated with IRAK4 primary antibody (Abcam) overnight at 4°, the membranes were washed with TBST buffer (2.4 g Tris, 8.8 g NaCl, 1.5 mL Tween 20, pH adjusted to 7.4, constant volume to 1 L) for 30 minutes, incubated with secondary antibody (Abcam) for 2 hours at room temperature, finally incubated with Clarity Western ECL Substrate (BIO-RAD) for 5 minutes for luminescence development, chemiluminescence imaging system (Clinx, chemiScope 6200 Touch) was used for development and protein mapping photography. The protein map was analyzed by Clinx chemiluminescence analysis software for grayscale values. Using the formula: grayscale correction value=(target protein grayscale value/corresponding internal reference grayscale value)×[…], the grayscale correction value of each sample was calculated. The degradation rate was calculated by comparing with the grayscale correction value of the control group. Furthermore, DC50 and Dmax values of the compound were obtained by the nonlinear curve fitting with the logarithmic concentration-inhibition rate by GraphPad Prism 7.

[2] = Pharmacokinetic study in mice; assay type: in vivo, SD mice
Procedure: The following experimental scheme was used to study the pharmacokinetic behavior of the compound of the present invention in mice and evaluate its pharmacokinetic characteristics.
Experimental scheme: 3 healthy SD mice, male, weighing […], were given 100 mg/kg compound by gavage with a volume of 10 mL/kg, prepared with […] (w/v). Before the test, they were fasted for 12 hours and freely drank water. Food was uniformly consumed 4 h after administration.
Three healthy SD mice, male, weighing […], were given 1 mg/kg compound intravenously with a volume of 5 mL/kg, prepared with 5% DMSO/15% solutol %80% PBS (w/v). Before the test, they were fasted for 12 hours and freely drank water. Food was uniformly consumed 4 h after administration.
0.1 mL of venous blood was taken through the submaxillary venous plexus of mice at 0.08 h, 0.25 h, 0.5 h, 1 h, 2 h, 4 h, 8 h, 24 h after gavage administration and 0.08 h, 0.25 h, 0.5 h, 1 h, 2 h, 4 h, 8 h, 24 h after intravenous administration, placed in a heparin test tube, centrifuged at 11000 rpm for 5 min, and plasma was separated, the concentration of compounds in plasma was determined by liquid chromatography-tandem mass spectrometry.

[3] = male, SD, mouse, po, gavage administration 100 mg/kg, plasma

IC50 (IRAK4 kinase) [µM] | IKZF1 degradation rate (%) (IKZF1) | IKZF3 degradation rate (%) (IKZF3) | DC50 [1] [µM] | Dmax [1] [%] | WB D(%) (300 nM) [1] | WB D(%) (1000 nM) [1] | CL_pred ([2]; intravenous injection 1 mg/kg) [mL/min/kg] | Vss_pred ([2]; intravenous injection 1 mg/kg) [L/kg] | AUC(0-t) ([2]; male, SD, mouse, intravenous injection 1 mg/kg, plasma) [ng·h/mL] | bioavailability ([2]; male, SD, mouse, plasma, po, gavage 100 mg/kg vs intravenous 1 mg/kg) [%] | AUC(0-t) [2, 3] [ng·h/mL] | Cmax [2, 3] [ng/mL] | SMILES
0.0411 | 18.8 ± 2.7 | 22.4 ± 6.6 | 0.0121 | 92.4 | 91.3 | 89.5 |  |  |  |  |  |  | CC(C)(O)c1cc2nn(C3CCN(CCC4CCN(c5ccc6c(c5)C(=O)N(C5CCC(=O)NC5=O)C6=O)CC4)CC3)cc2cc1NC(=O)c1cccc(C(F)(F)F)n1 (centres unmarked) [Example 5, N-(2-(1-(2-(1-(2-(2,6-dioxopiperidin-3-yl)-1,3-dioxoisoindolin-5-yl)piperidin-4-yl)ethyl)piperidin-4-yl)-6-(2-hydroxyprop-2-yl)-2H-indazol-5-yl)-6-(trifluoromethyl) pyridinecarboxamide]
 | 97.2 ± 2.6 | 92.8 ± 5.0 |  |  |  |  |  |  |  |  |  |  | CN(CC1CCN(c2cccc3c2C(=O)N(C2CCC(=O)NC2=O)C3=O)CC1)C[C@H]1CC[C@H](n2cc3cc(NC(=O)c4cccc(C(F)(F)F)n4)c(C(C)(C)O)cc3n2)CC1 (some centres unmarked) [Control group 3, N-(2-((1r,4r)-4-((((1-(2-(2,6-dioxopiperidin-3-yl)-1,3-dioxoisoindolin-4-yl)piperidin-4-yl)methyl)(methyl)amino)methyl)cyclohexyl)-6-(2-hydroxyprop-2-yl)-2H-indazol-5-yl)-6-(trifluoromethyl) pyridinecarboxamide, reference compound]
 | 99.7 ± 0.2 | 98.6 ± 0.6 |  |  |  |  |  |  |  |  |  |  | Nc1cccc2c1C(=O)N(C1CCC(=O)NC1=O)C2=O (centres unmarked) [Pomalidomide, reference compound]
 | 47.5 ± 9.7 | 71.2 ± 5.7 |  | 85.1 | 79.7 | 85.7 | 91.7 | 109.4 | 122 | 14 | 1720 | 150 | COc1cc2nn(C3CCN(CC4CCN(CCOc5ccc6c(c5)C(=O)N(C5CCC(=O)NC5=O)C6=O)CC4)CC3)cc2cc1NC(=O)c1cccc(C(F)(F)F)n1 (centres unmarked) [Control group 2, N-(2-(1-((1-(2-((2-(2,6-dioxopiperidin-3-yl)-1,3-dioxoisoindol-5-yl)oxy)ethyl)piperidin-4-yl)methyl)piperidin-4-yl)-6-methoxy-2H-indazol-5-yl)-6-(trifluoromethyl) pyridinecarboxamide, reference compound]
0.0178 | 4.3 ± 0.8 | −4.5 ± 2.9 | 0.0017 | 99.9 | 99.5 | 99.9 |  |  |  |  |  |  | CC(C)(O)c1cc2nn(C3CCN(CCN4CCN(c5ccc6c(c5)C(=O)N(C5CCC(=O)NC5=O)C6=O)CC4)CC3)cc2cc1NC(=O)c1cccc(C(F)(F)F)n1 (centres unmarked) [Example 4, N-(2-(1-(2-(4-(2-(2,6-dioxopiperidin-3-yl)-1,3-dioxoisoindolin-5-yl)piperazin-1-yl)ethyl)piperidin-4-yl)-6-(2-hydroxyprop-2-yl)-2H-indazol-5-yl)-6-(trifluoromethyl) pyridinecarboxamide]
